According to patent US9416141B2 (University of Washington through its Center for …, priority 2012, dated 2016):
Where a name gives a salt, the structure may show the parent alone.

System: hair cells
Experiment: Hair cell toxicity assay in zebrafish (neomycin-induced hair cell death, DASPEI staining of neuromasts)
Type: in vivo
Details: Danio rerio; for Emax at 25 µM: maximum observed @ 25 μM test compound; for EC50: zebrafish larvae 5-7 dpf, 1 h pre-treatment, then 200 micromolar neomycin + test compound 30 min, read-out: HC50 (concentration that would produce 50% hair cell survival); for Emax at 2.8 µM: maximum observed @ 2.8 μM test compound; for Emax at 8.3 µM: maximum observed @ 8.3 μM test compound
Summary of the method: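 Zebrafish larvae 5-7 dpf pre-treated 1 h with compound (0.010-25 μM), then 30 min with 200 μM neomycin plus compound. DASPEI stained 10 neuromasts per fish, scored 0-2 (total 0-20), normalised to vehicle controls as % hair cell survival. HC50 linearly interpolated if survival reached ≥50%; HCmax is maximum survival.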

[1] = 200 micromolar neomycin, read-out: Max HC Protection (HCmax, % hair cell survival)

Structure (SMILES)	Emax at 25 µM [1]	EC50	further results
CCN1CCc2c(sc(NC=O)c2C(N)=O)C1 [Example 108, 6-ethyl-2-formamido-4,5,6,7-tetrahydrothieno[2,3-c]pyridine-3-carboxamide hydrochloride]	–	–	Emax at 0.9 µM (maximum observed @ 0.9 μM test compound, 200 micromolar neomycin, read-out: Max HC Protection (HCmax, % hair cell survival)): 13%
C[N+]1(CC(F)(F)F)CCc2c(sc(NC(=O)Nc3ccc(Cl)cc3)c2C(N)=O)C1 (stereo not drawn) [Example 192, 3-Carbamoyl-2-[3-(4-chlorophenyl)ureido]-6-methyl-6-(2,2,2-trifluoroethyl)-4,5,6,7-tetrahydrothieno[2,3-c]pyridin-6-ium iodide]	88%	< 1000 nM	–
NC(=O)c1c(NC(=O)Nc2ccc(Cl)cc2)sc2c1CCN(CCCNC(=O)/C=C/c1ccccc1)C2 [Example 217, 2-{[(4-chlorophenyl)carbamoyl]amino}-6-{3-[(2E)-3-phenylprop-2-enamido]propyl}-4H,5H,6H,7H-thieno[2,3-c]pyridine-3-carboxamide]	–	< 1000 nM	Emax at 2.8 µM [1]: 93%
CC[N+]1(CC(C)C)CCc2c(sc(NC(=O)Nc3ccc(Cl)cc3)c2C(N)=O)C1 (stereo not drawn) [Example 200, 3-Carbamoyl-2-[3-(4-chlorophenyl)ureido]-6-ethyl-6-isobutyl-4,5,6,7-tetrahydrothieno[2,3-c]pyridin-6-ium chloride]	–	< 1000 nM	Emax at 2.8 µM [1]: 97%
CC(=O)NCCN1CCc2c(sc(NC(=O)Nc3ccc(Cl)cc3)c2C(N)=O)C1 [Example 15, 6-(2-Acetamidoethyl)-2-[3-(4-chlorophenyl)ureido]-4,5,6,7-tetrahydrothieno[2,3-c]pyridine-3-carboxamide trifluoroacetate]	57%	> 10000 nM	–
CC(C)(C)OC(=O)CCCCN1CCc2c(sc(NC(=O)Nc3ccc(Cl)cc3)c2C(N)=O)C1 [Example 19, tert-Butyl 5-{3-carbamoyl-2-[3-(4-chlorophenyl)ureido]-4,5-dihydrothieno[2,3-c]pyridin-6(7H)-yl}pentanoate]	–	< 1000 nM	Emax at 8.3 µM [1]: 68%
NC(=O)c1c(NC(=O)Nc2ccc(Cl)cc2)sc2c1CCN(CCN1CCOCC1)C2 [Example 46, 2-[3-(4-Chlorophenyl)ureido]-6-(2-morpholinoethyl)-4,5,6,7-tetrahydrothieno[2,3-c]pyridine-3-carboxamide trifluoroacetate]	79%	> 10000 nM	–
NC(=O)c1c(NC(=O)Nc2ccc(Cl)cc2)sc2c1CCN(CCCNC(=O)C1CC1)C2 [Example 215, 2-{[(4-chlorophenyl)carbamoyl]amino}-6-[3-(cyclopropylformamido)propyl]-4H,5H,6H,7H-thieno[2,3-c]pyridine-3-carboxamide]	95%	1000 to 10000 nM	–
CC(C)(C)C[N+]1(C)CCc2c(sc(NC(=O)Nc3ccc4ccccc4c3)c2C(N)=O)C1 (stereo not drawn) [Example 193, 3-Carbamoyl-6-methyl-2-(3-naphthalen-2-ylureido)-6-neopentyl-4,5,6,7-tetrahydrothieno[2,3-c]pyridin-6-ium trifluoroacetate]	98%	< 1000 nM	–
C[N+]1(CC2CCC2)CCc2c(sc(NC(=O)Nc3ccc(Cl)c4ccccc34)c2C(N)=O)C1 (stereo not drawn) [Example 182, 3-Carbamoyl-2-[3-(4-chloronaphthalen-1-yl)ureido]-6-(cyclobutylmethyl)-6-methyl-4,5,6,7-tetrahydrothieno[2,3-c]pyridin-6-ium chloride]	–	1000 to 10000 nM	Emax at 83 µM (maximum observed @ 83 μM test compound, 200 micromolar neomycin, read-out: Max HC Protection (HCmax, % hair cell survival)): 76%
CC(C)C(C)N1CCc2c(sc(NC(=O)Nc3ccc(Cl)cc3)c2C(N)=O)C1 (racemic) [Example 48, (+/−)-2-[3-(4-Chlorophenyl)ureido]-6-(3-methylbutan-2-yl)-4,5,6,7-tetrahydrothieno[2,3-c]pyridine-3-carboxamide hydrochloride]	72%	1000 to 10000 nM	–
CCN1CCc2c(sc(NC(=O)C3(c4ccc(Cl)cc4)CC3)c2C(N)=O)C1 [Example 105, 2-[1-(4-chlorophenyl)cyclopropanecarboxamido]-6-ethyl-4,5,6,7-tetrahydrothieno[2,3-c]pyridine-3-carboxamide]	7%	–	–
CN1C2CCC1c1sc(NC(=O)Nc3ccc(Cl)cc3)c(C(N)=O)c1C2 (single isomer, unassigned; (-)) [Example 127, (−)-2-[3-(4-chlorophenyl)ureido]-9-methyl-5,6,7,8-tetrahydro-4H-5,8-epiminocyclohepta[b]thiophene-3-carboxamide hydrochloride]	–	1000 to 10000 nM	–
CCN1CCc2c(sc(NC(=O)Nc3ccc4cc(F)ccc4c3)c2C(N)=O)C1 [Example 93, 6-ethyl-2-[3-(6-fluoronaphthalen-2-yl)ureido]-4,5,6,7-tetrahydrothieno[2,3-c]pyridine-3-carboxamide hydrochloride]	97%	1000 to 10000 nM	–
CCN1CCc2c(sc(NC(=O)Nc3cccnc3)c2C(N)=O)C1 [Example 69, 6-Ethyl-2-[3-(pyridin-3-yl)ureido]-4,5,6,7-tetrahydrothieno[2,3-c]pyridine-3-carboxamide dihydrochloride]	12%	–	–
CCN1CCc2c(sc(NC(=O)Nc3ccc4ncccc4c3)c2C(N)=O)C1 [Example 79, 6-Ethyl-2-[3-(quinolin-6-yl)ureido]-4,5,6,7-tetrahydrothieno[2,3-c]pyridine-3-carboxamide dihydrochloride]	–	–	Emax at 0.3 µM (maximum observed @ 0.3 μM test compound, 200 micromolar neomycin, read-out: Max HC Protection (HCmax, % hair cell survival)): 34%
NC(=O)c1c(NC(=O)Nc2ccc(Cl)cc2)sc2c1CC1CCC2N1 (single isomer, unassigned; (-)) [Example 129, (−)-2-[3-(4-Chlorophenyl)ureido]-5,6,7,8-tetrahydro-4H-5,8-epiminocyclohepta[b]thiophene-3-carboxamide hydrochloride]	–	< 1000 nM	Emax at 2.8 µM [1]: 81%
CC[N+]1(CC2CCC2)CCc2c(sc(NC(=O)Nc3ccc(Cl)cc3)c2C(N)=O)C1 (stereo not drawn) [Example 190, 3-carbamoyl-2-[3-(4-chlorophenyl)ureido]-6-(cyclobutylmethyl)-6-ethyl-4,5,6,7-tetrahydrothieno[2,3-c]pyridin-6-ium chloride]	–	< 1000 nM	Emax at 2.8 µM [1]: 100%
C[N+]1(C2COC2)CCc2c(sc(NC(=O)Nc3ccc(Cl)cc3)c2C(N)=O)C1 (stereo not drawn) [Example 142, 3-Carbamoyl-2-[3-(4-chlorophenyl)ureido]-6-methyl-6-(oxetan-3-yl)-4,5,6,7-tetrahydrothieno[2,3-c]pyridin-6-ium iodide]	82%	1000 to 10000 nM	–
CC(C)(O)CN1CCc2c(sc(NC(=O)Nc3ccc(Cl)cc3)c2C(N)=O)C1 [Example 119, 2-[3-(4-chlorophenyl)ureido]-6-(2-hydroxy-2-methylpropyl)-4,5,6,7-tetrahydrothieno[2,3-c]pyridine-3-carboxamide]	65%	1000 to 10000 nM	–
CCN1CCc2c(sc(NC(=O)Nc3ccc(C(=O)OC)cc3)c2C(N)=O)C1 [Example 31, Methyl 4-[3-(3-carbamoyl-6-ethyl-4,5,6,7-tetrahydrothieno[2,3-c]pyridin-2-yl)ureido]benzoate trifluoroacetate]	22%	–	–
CCN1CCc2c(sc(NC(=O)Nc3ccccc3Cl)c2C(N)=O)C1 [Example 65, 2-[3-(2-Chlorophenyl)ureido]-6-ethyl-4,5,6,7-tetrahydrothieno[2,3-c]pyridine-3-carboxamide hydrochloride]	–	–	Emax at 2.8 µM [1]: 17%
CCN1CCc2c(sc(NC(=O)Nc3ccc(Cl)cc3)c2C(=O)NCCN(C)C)C1 [Example 99, 2-[3-(4-Chlorophenyl)ureido]-N-[2-(dimethylamino)ethyl]-6-ethyl-4,5,6,7-tetrahydrothieno[2,3-c]pyridine-3-carboxamide dihydrochloride]	–	–	Emax at 2.8 µM [1]: 18%
NC(=O)c1c(NC(=O)Nc2ccc(Cl)cc2)sc2c1CCN(CCCNC(=O)c1ccccc1)C2 [Example 212, 2-{[(4-chlorophenyl)carbamoyl]amino}-6-[3-(phenylformamido)propyl]-4H,5H,6H,7H-thieno[2,3-c]pyridine-3-carboxamide]	103%	1000 to 10000 nM	–
CCN1CCc2c(sc(NC(=O)Nc3ccc(I)cc3)c2C(N)=O)C1 [Example 224, 6-ethyl-2-{[(4-iodophenyl)carbamoyl]amino}-4H,5H,6H,7H-thieno[2,3-c]pyridine-3-carboxamide]	–	1000 to 10000 nM	Emax at 12.5 µM (maximum observed @ 12.5 μM test compound, 200 micromolar neomycin, read-out: Max HC Protection (HCmax, % hair cell survival)): 94%
COC(=O)CCC[N+]1(C)CCc2c(sc(NC(=O)Nc3ccc(Cl)cc3)c2C(N)=O)C1 (stereo not drawn) [Example 158, 3-Carbamoyl-2-[3-(4-chlorophenyl)ureido]-6-(4-methoxy-4-oxobutyl)-6-methyl-4,5,6,7-tetrahydrothieno[2,3-c]pyridin-6-ium iodide]	80%	1000 to 10000 nM	–
C[N+]1(C)CCCC12CCc1c(sc(NC(=O)Nc3ccc(Cl)cc3)c1C(N)=O)C2 (racemic) [Example 186, (+/−)-3-Carbamoyl-2-[3-(4-chlorophenyl)ureido]-1′,1′-dimethyl-5,7-dihydro-4H-spiro(benzo[b]thiophene-6,2′-pyrrolidin)-1′-ium trifluoroacetate]	–	< 1000 nM	Emax at 2.8 µM [1]: 65%
NC(=O)c1c(NC(=O)Nc2ccc(Cl)cc2)sc2c1CCN(C1CCOCC1)C2 [Example 5, 2-[3-(4-Chlorophenyl)ureido]-6-(tetrahydro-2H-pyran-4-yl)-4,5,6,7-tetrahydrothieno[2,3-c]pyridine-3-carboxamide hydrochloride]	–	1000 to 10000 nM	Emax at 8.3 µM [1]: 89%
